Experimental data as given in patent US20120045816A1, “Novel Glycosylated Polypeptides” (Sialix, Inc., priority 2008, published 2012).

Columns and labels:
[1] = test system: affinity-purified chicken anti-Neu5Gc IgY; test: ELISA detection of Neu5Gc on Cetuximab and Panitumumab; type: binding; details: 1 μg antibody per well; FIG. 1A
Excerpt: Sialidase Treatment of Cet and Pan. […] Samples were used for ELISA or Western Blots.
ELISA samples were studied at least in triplicate. […] Samples were studied in triplicate.
ELISA We first did ELISA assays using an affinity-purified polyclonal chicken anti-Neu5Gc antibody preparation that is highly mono-specific for Neu5Gc^5, alongside a non-reactive control IgY.

[2] = Sialic acid quantity (DMB-HPLC); type: physicochemical
Description: DMB-HPLC. Samples were subjected to base treatment with 0.1 M NaOH (final) at 37° C. for 30 min to remove O-acetyl esters, and the sialic acids were released by acid hydrolysis with 2 M acetic acid (final), at 80° C. for 3 hours. Samples were passed through Microcon-10 columns (20 min, 10000×g; Millipore), derivatized with 1,2-diamino-4,5-methyl dioxybenzene (DMB), and analyzed by HPLC as described^9 in Hara et al., 1986, J. Chromatography 377:111-119. Measured values of non acid-treated controls (free sialic acids) were subtracted.
(§1) Sialic Acid Quantity. The levels of Sialic acids on the therapeutic antibodies (TAbs) Cet and Pan were determined. […] Cet and Pan (1 μg each) were separated by SDS-PAGE and Coomassie stained or blotted (see FIG. 1B). […] The absorbance was measured at 405 nm.

[3] = test system: anti-Neu5Gc antibodies in human serum; test: CIC-C1q binding assay, immune complex formation in whole human serum; details: 40 μg antibody in 100 μl serum, FIG. 1F
Description: CIC-C1q Binding Assay. […] 1:50 dilutions of the mix were applied to human C1 q coated ELISA wells, and incubated for 1 h at 25° C. […] The absorbance was measured at 405 nm. Samples were studied in triplicate.
as §1

[4] = test system: anti-Neu5Gc antibodies from whole human sera; test: Direct binding of anti-Neu5Gc antibodies from whole human sera to Fab fragments (ELISA); details: serum S34; Fab fragments 1 μg/well; FIG. 2C
Description: Direct binding of anti-Neu5Gc antibodies from whole human sera to the glycosylated polypeptides, Cet and Pan, was evaluated. […] Fab fragments (1 μg/well) were used as target molecules in ELISA. Sialic acid specific binding was determined with sodium metaperiodate treatment. Wells were then blocked and incubated with human sera (S30 and S34 with low and high anti-Neu5Gc IgG titers, respectively, from Ref. 7).

Human 293T cells = test: Reduction of Neu5Gc contamination in 293T human kidney cells by Neu5Ac chase; type: cell-based; details: 5 mM Neu5Ac chase after 5 mM Neu5Gc for 3 days; HPLC; FIG. 3A-B
Description: Reduction of Neu5Gc Contamination in Glycosylated Polypeptides in 293T Human Kidney Cells. 293T human kidney cells were grown in DME supplemented with 10% FCS. Cells were lifted from culture plate using 20 mM EDTA in PBS and allowed to grow to 50% confluence. Buffered 100 mM Neu5Gc was added to the culture in duplicate at a final 5 mM concentration, and the cells were grown in this supplemented media for 3 days. At the end of this Neu5Gc pulse, the cells were once again lifted using 20 mM EDTA in PBS, pelleted, washed once with PBS to remove any excess Neu5Gc and then suspended in 30 ml of growth medium. Five ml of this cell suspension was added to each of […]. The last aliquot of cell suspension, time “0”, was immediately harvested by pelleting the cells, washing once with PBS, followed by suspending the cells in 1 ml of PBS and transferring to a 1.5 ml microcentrifuge tube. The cells were re-pelleted and frozen until all time points were collected. […]
Free Neu5Ac in Human 293T Cell Culture Medium Reduces Neu5Gc Contamination. […] Cells were harvested as described above, and the Neu5Gc and Neu5Ac content of both the ethanol soluble (FIG. 3A) and ethanol precipitable proteins (FIG. 3B) was analyzed by HPLC. […]

CHO cells = test: Reduction of Neu5Gc contamination in CHO cells by feeding Neu5Ac; type: cell-based, Chinese Hamster; details: 5 mM Neu5Ac in medium; DMB-HPLC and Western blot; FIG. 3C-E
Description: Reduction of Neu5Gc Contamination in Glycosylated polypeptides in CHO Cells. A similar approach was taken to CHO cells stably expressing a Siglec-Fc protein in the medium, except that the Neu5Gc pulse was omitted, and the secreted glycoproteins were captured on Protein-A Sepharose beads. The cells were also processed similarly, except that total cell membranes were pelleted by centrifugation. The Sias content of the secreted proteins and cell membranes was determined by acid hydrolysis, DMB derivatization and HPLC. The cell membranes were also studied for NueSGc content by Western-blotting with the chicken anti-Neu5Gc IgY, as described above.
Free Neu5Ac in Non-Human CHO Cell Culture Medium Reduces Neu5Gc Contamination. However, many recombinant glycosylated polypeptides are currently produced in non-human cells, e.g., Chinese Hamster Ovary (CHO) cell lines. Glycosylated polypeptide produced in CHO cells carry small amounts of Neu5Gc^19,5. […] The individually collected media was centrifuged to remove cell debris and adjusted to 5 mM Tris-HCl pH 8. The fusion protein was purified using Protein-A Sepharose. Sialic acid content was determined by DMB-HPLC analysis (FIG. 3C). The area under each peak was obtained and the percent of Neu5Gc in each sample was determined relative to Neu5Ac. Total cell membranes from the same CHO cells were prepared and used for DMB-HPLC analysis (FIG. 3D). […]

Compound | Bound Neu5Gc detected by chicken anti-Neu5Gc IgY (ELISA) [1] | Share of Neu5Gc in the Sias [2] [%] | Sias carried by the antibody [2] [mol/mol] | Immune complex formation, low titer human serum ([3]; serum S30) | Immune complex formation, human serum with high levels of anti-Neu5Gc antibodies ([3]; serum S34) | Mild periodate sensitive binding of serum IgG to Fab fragments, high anti-Neu5Gc titer serum [4] | Effect on Neu5Gc content of cells preloaded with Neu5Gc (Human 293T cells) | Effect on Neu5Gc of membrane glycoproteins and a secreted recombinant protein (CHO cells)
Panitumumab: fully human antibody against the EGF receptor produced in Chinese Hamster Ovary cells | not on Panitumumab | < 0.1 | 0.22 | no detectable immune complex formation | no detectable immune complex formation | not to those of Panitumumab |  | 
CC(=O)N[C@H]1[C@H]([C@H](O)[C@H](O)CO)OC(O)(C(=O)O)C[C@@H]1O (some centres unmarked) [Neu5Ac, N-acetylneuraminic acid] |  |  |  |  |  |  | more rapid disappearance of ethanol-precipitable (glycosidically-bound) Neu5Gc | reduces Neu5Gc in CHO cells
